According to US10745352B2, “Dual function molecules for histone deacetylase inhibition and ataxia telangiectasia mutated activation and methods of use thereof” (Shuttle Pharmaceuticals, Inc., priority 2015, dated 2020):

Columns and labels:
ATM = ATM activation: phospho-ATM (S1981) ELISA on the nuclear fraction of MCF7 cells; format: cell-based, Human; conditions: 1 μM, time course of 6 hours
Protocol: Several assays were utilized to determine the ability of the compounds of the invention to activate ATM over a period of time. […] The fold change in phospho-ATM was measured over a period of time. Accordingly, the increase in phospho-ATM indicates activation of ATM by the compounds of the invention.
In certain examples, the activity of the compounds of the invention was compared to additional modulators of ATM, such as […] (a specific ATM inhibitor); dimethylsulfoxide (DMSO) (a solvent); 3,3′-diindolylmethane (DIM) (an ATM activator); and irradiation (irradiation may result in the generation of phospho-ATM due to DNA damage). DIM was not used as a comparative compound in Example 5.
Materials: MCF7 Cells; Complete RPMI media: RPMI, 10% Fetal Bovine Serum (FBS), 5% L-glutamine, 5% Pen/Strep; R&D Systems Human P-ATM (S1981) DuoSet IC ELISA Assay Kit; Plate sealers; Normal mouse serum (heat inactivated 56 C for 30 min); 96-well ELISA microtiter plate; 450 nm Plate Reader; 60 mm dishes; Disposable pipettes; Pipet-aid; Pipette tips; Micro-pipetter; Cell scraper; Distilled water; Pierce NE-PER Nuclear and Cytoplasmic Extraction Reagent; Pierce Protease and Phosphotase Inhibitor Mini Tablets; KU-55933; DIM (not used in Example 5); Dimethyl sulfoxide (DMSO); Phosphate buffered saline (PBS); and Sterile micro-tubes and conical tubes; Hemocytometer; Microscope; Micro-centrifuge.
MCF7 Cells were grown in Complete RPMI media and 10^6 cells were seeded into 60 mm dishes. Dishes were then divided into duplicate treatments the following day. Control samples were treated with 3 ml RPMI media for 1 hr. Vehicle samples were treated with 3 ml RPMI media plus 0.1% DMSO for 1 hr. Negative control samples were treated with 10 μM KU-55933 in 3 ml RPMI media plus 0.1% DMSO for 1 Hr. Positive control samples were treated with 0.5 μM DIM in 3 ml RPMI media plus 0.1% DMSO for 30 min. Test Samples were treated with 1 μM of the test compounds (e.g. N-(6-(hydroxyamino)-6-oxohexyl)-1H-indole-2-carboxamide in Example 5) in 3 ml RPMI media plus 0.1% DMSO for 30 min; 1 hr; 2 hrs; 4 hrs; and 6 hrs. At their designated time, samples were harvested on ice using a cell scraper and two washes of 1 ml PBS and kept as a cell pellet on dry ice until all were collected. After all samples were collected they were thawed on ice and separated into cytosolic and nuclear fractions using the Pierce NE-PER Nuclear and Cytoplasmic Extraction Reagent kit with added Pierce protease and phosphotase inhibitor tablet.
After recovery of the separate fractions, the process further included washing cells by suspending the cell pellet with PBS. 1-10×10^6 cells were transferred to a 1.5 mL microcentrifuge tube and a pellet was formed by centrifugation at 500×g for 2-3 minutes. […]

pan-HDACs = experiment: Pan-HDAC assay (Fluor-de-Lys fluorometric kit, HeLa Nuclear Extract); format: biochemical; conditions: values are average EC50, read-out: EC50 against pan-HDACs
Protocol: Certain compounds of the invention were tested in a pan-HDAC assay to determine the ability of such compounds to inhibit HDAC protein. Specifically, the compounds tested included: N-(6-(hydroxyamino)-6-oxohexyl)-3-methyl-1H-indole-2-carboxamide (SP-1-161) (FIG. 8A); N^1-hydroxy-N^6-(2-(2-methyl-1H-indol-3-yl)ethyl)octanediamide (SP-1-163) (FIG. 8A); (S)—N-(6-(hydroxyamino)-6-oxohexyl)-1-tosylindoline-2-carboxamide (SP-1-169) (FIG. 8B); and (S)-1-((5-(dimethylamino)naphthalene-1-yl)sulfonyl)-N-(6-(hydroxyamino)-6-oxoheyl)indoline-carboxamide (SP-1-171) (FIG. 8B).
The Pan HDAC assay was performed as follows:
Materials: Enzo Fluor-de-Lys HDAC fluorometric activity assay kit; 360 nm excitation 460 nm emission Plate Reader; Disposable pipettes; Pipet-aid; Pipette tips; Micro-pipetter; DMSO; Sterile micro-tubes and conical tubes; and Micro-centrifuge.
Test compounds and control preparation: All test compounds' stock solutions were made in 100% DMSO. Test compound dilutions were made in HDAC Assay buffer with a final concentration of DMSO less than or equal to 1%. Vehicle control was HDAC Assay buffer with 1% DMSO.
The reagents for the assay were prepared as follows:
1. All kit components were defrosted and these, and all dilutions described below, were kept on ice until use. All undiluted kit components are stable for several hours on ice.
2. A sufficient amount of HeLa Nuclear Extract (BML-KI140) or other HDAC source diluted in Assay Buffer (BML-KI143) was prepared to provide for the assays that were performed (# of wells×15 μl). A 30-fold dilution of the HeLa Extract means that 15 μl contains 0.5 μl of the undiluted Extract, an appropriate amount to use per well.
3. Dilution(s) of Trichostatin A and/or Test Inhibitors were prepared in Assay Buffer (BML-KI143). Since 10 μl were used per well, and since the final volume of the HDAC reaction was 50 μl, these inhibitor dilutions were 5× their final concentration.
4. Dilution(s) of the Fluor de Lys® Substrate (BML-KI104; 50 mM) were prepared in Assay Buffer (BML-KI143) that were 2× the desired final concentration(s). For inhibitor screening, substrate concentrations at or below the Km are recommended. Twenty-five μL were used per well. Initial dilutions of 25-fold or greater in Assay Buffer (2.0 mM or less) yielded stable solutions (see NOTE on freezing and thawing below). Rapid mixing and dilution into room temperature buffer helped to prevent precipitation at high substrate concentration. NOTE: Freezing/thawing of Fluor de Lys® Substrate solutions in Assay Buffer may cause precipitation of the Substrate. Dilute only amount necessary for one day's experiment.
5. Shortly before use (<30 min.), sufficient Fluor de Lys® Developer was prepared for the assays to be performed (50 μl per well). […]

| Compound | ATM activation (level of ATM phosphorylation, phospho-ATM) (ATM) | ATM activation (level of ATM phosphorylation, phospho-ATM) (ATM; listed as 2,3-dimethylindole) | EC50 (pan-HDACs) [nM] |
| --- | --- | --- | --- |
| Cc1[nH]c2ccccc2c1C [2,3-dimethyl indole, reference compound] | significant increase in ATM phosphorylation | significant increase in ATM activation | – |
| Cc1ccc(S(=O)(=O)N2c3ccccc3C[C@H]2C(=O)NCCCCCC(=O)NO)cc1 [SP-1-169, (S)—N-(6-(hydroxyamino)-6-oxohexyl)-1-tosylindoline-2-carboxamide] | – | – | 265 |
| CN(C)c1cccc2c(S(=O)(=O)N3c4ccccc4C[C@H]3C(=O)NCCCCCC(=O)NO)cccc12 [SP-1-171, (S)-1-((5-(dimethylamino)naphthalene-1-yl)sulfonyl)-N-(6-(hydroxyamino)-6-oxoheyl)indoline-carboxamide] | – | – | 25.3 |
| Cc1[nH]c2ccccc2c1CCNC(=O)CCCCCCC(=O)NO [SP-1-163, N^1-hydroxy-N^6-(2-(2-methyl-1H-indol-3-yl)ethyl)octanediamide] | exemplary ATM activation activity | – | 112 |
